Tested on: G protein α-subunits (α15 and α16/Z chimeric protein), no sweet taste receptor
Experiment: Intracellular calcium ion assay, 293 cells expressing G protein α-subunits without sweet taste receptor
Assay type: cell-based, Mouse, Human
Settings: 293 cells: G protein α-subunits only, no T1R1/T1R2/T1R3; 0.67 ml of 1 M saccharide solution added to 2 ml cell suspension
Description: The coexpression vector for the G protein α-subunit α15 and the G protein α16/Z chimeric protein (hereinafter designated as “G protein α-subunits”) obtained in Example 1-3 was gene transferred to 293 cells, RCB 1637, a human embryonic kidney cell line, available from the Riken Bioresource Center, Ibaraki, Japan, by conventional lipofection. The gene transferred cells were suspended in Dulbecco's Modified Eagle's Medium (D-MEM) supplemented with 1 mg/L of “PUROMYCIN”, a trade mane of puromycin commercialized by Edge Biosystems, MD, USA, and 10% (v/v) of fetal calf serum to give a cell density of 2×10^6 cells/ml and cultured in a plastic petri dish for cell culture. […]
The captioned reactivity test was conducted according to a conventional intracellular calcium ion assay: 293 Cells prepared in Example 3, capable of coexpressing the G protein α-subunits and the sweet taste receptor(s), were cultured in a plastic petri dish for cell culture until reaching its confluent phase. […] Two milliliters of the resultant cell suspension was injected into a glass cuvette, commercialized by Hitachi, Ltd., Tokyo, Japan, and analyzed on “HITACHI 650-40”, a fluorescence spectrophotometer commercialized by Hitachi, Ltd., Tokyo, Japan. […]

Row | SMILES | Influx of calcium ion
1 | OC[C@H]1O[C@@](CO)(O[C@H]2O[C@H](CO)[C@@H](O)[C@H](O)[C@H]2O)[C@@H](O)[C@@H]1O [Sucrose, reference compound] | Negative
2 | OC[C@H]1O[C@H](O[C@H]2O[C@H](CO)[C@@H](O)[C@H](O)[C@H]2O)[C@H](O)[C@@H](O)[C@@H]1O [Trehalose] | Negative
